The values below come from patent US8629149B2, “Oxopiperazine derivatives for the treatment of pain and epilepsy” (Zalicus Pharmaceuticals Ltd., priority 2009, dated 2014).

What is called Tmax is the time at which the peak concentration occurs.

For series [1], the system named is SNL L5/L6 rats. The series can be described thus: L5/L6 spinal nerve ligation (SNL) Chung pain model, tactile allodynia (von Frey). The series is classed as in vivo, rat. The conditions noted are these: for Rat SNL tactile allodynia, anti-allodynia (statement): compared to baseline and post-SNL. The source says:
The Spinal Nerve Ligation is an animal model representing peripheral nerve injury generating a neuropathic pain syndrome. In this model experimental animals develop the clinical symptoms of tactile allodynia and hyperalgesia. L5/L6 Spinal nerve ligation (SNL) injury was induced using the procedure of Kim and Chung (Kim et al., Pain 50:355-363 (1992)) in male Sprague-Dawley rats (Harlan; Indianapolis, Ind.) weighing 200 to 250 grams.
Anaesthesia was induced with 2% isofluorane in O2 at 2 L/min and maintained with 0.5% isofluorane in O2. Rats were then shaved and aseptically prepared for surgeries. A 2 cm paraspinal incision was made at the level of L4-S2. L4/L5 was exposed by removing the transverse process above the nerves with a small rongeur. The L5 spinal nerve is the larger of the two visible nerves below the transverse process and lies closest to the spine. The L6 spinal nerve is located beneath the corner of the slope bone. A home-made glass Chung rod was used to hook L5 or L6 and a pre-made slip knot of 4.0 silk suture was placed on the tip of the rod just above the nerve and pulled underneath to allow for the tight ligation. The L5 and L6 spinal nerves were tightly ligated distal to the dorsal root ganglion. The incision was closed, and the animals were allowed to recover for 5 days.
Sham control rats underwent the same operation and handling as the experimental animals, but without SNL.
Prior to initiating drug delivery, baseline behavioural testing data is obtained. At selected times after infusion of the Test or Control Article behavioural data can then be collected again.
The assessment of tactile allodynia consisted of measuring the withdrawal threshold of the paw ipsilateral to the site of nerve injury in response to probing with a series of calibrated von Frey filaments (innocuous stimuli). Animals were acclimated to the suspended wire-mesh cages for 30 min before testing. Each von Frey filament was applied perpendicularly to the plantar surface of the ligated paw of rats for 5 sec. A positive response was indicated by a sharp withdrawal of the paw. For rats, the first testing filament is 4.31. Measurements were taken before and after administration of test articles. […] The protocol was repeated until three changes in behaviour were determined (“up and down” method) (Chaplan et al., J. Neurosci. Methods 53:55-63 (1994)). The 50% paw withdrawal threshold was determined as (10^[Xf+kδ])/10,000, where Xf=the value of the last von Frey filament employed, k=Dixon value for the positive/negative pattern, and δ=the logarithmic difference between stimuli. The cut-off values for rats were no less than 0.2 g and no higher than 15 g (5.18 filament); for mice no less than 0.03 g and no higher than 2.34 g (4.56 filament). A significant drop of the paw withdrawal threshold compared to the pre-treatment baseline is considered tactile allodynia.
Rat SNL tactile allodynia were tested for Compounds 1-4 and 9-12 at 60 minutes compared to baseline and post-SNL. […] FIG. 1 is a plot of the antiallodynic effects of compound 4 (i.p.) tested in SNL L5/L6 rats using von Frey at three different doses, namely 3, 10 and 30 mpk, compared to vehicle alone. […] Rat SNL tactile allodynia were tested at 1, 2 and 4 hours after drug treatment (Table 6).

Series [2] can be described thus: Rat Early Pharmacokinetic (EPK) study. The series is classed as in vivo. Conditions: 30 mg/kg PO, 0.5% CMC; for Tmax: male, Sprague-Dawley, blood. How it is done: Male Sprague-Dawley rats were dosed via oral (PO) gavage in the detailed formulation. Blood samples were collected from the animals at 6 timepoints out to 4 hours post-dose. Pharmacokinetic analysis was performed on the LC-MS/MS measured concentrations for each timepoint of each compound.

Series [3] deals with T1, Nav1.7 channels expressed in HEK cells (Homo sapiens, UniProt Q15858).
T1 construct: expressed in transfected cells; host or cells: HEK cells
The series can be described thus: Nav1.7 voltage-clamp electrophysiological assay (enhancement of slow inactivation). The conditions noted are these: n 5 cells. The series is classed as cell-based. Here is the method:
To examine the effects of compounds on enhancement of slow inactivation of Nav1.7 and Nav1.8 channels expressed in HEK cells the culture media was replaced with an extracellular solution containing (in mM): 137 NaCl, 4 KCl, 1.8 CaCl2, 1 MgCl2, 10 HEPES, 10 glucose, pH adjusted to 7.4 with NaOH. The intracellular solution contained (in mM): 130 KCl, 1 MgCl2, 5 EGTA, 10 HEPES, 5 K2ATP, adjusted to pH 7.3 with KOH. Whole-cell recordings, preparation and application of test compounds were performed in a similar manner to the Cav3.2 electrophysiological assays. Voltage protocols were applied to quantify the effects of test compounds to enhance slow inactivation for Nav1.7 and Nav1.8.

T1 sequence (Q15858 whole entry): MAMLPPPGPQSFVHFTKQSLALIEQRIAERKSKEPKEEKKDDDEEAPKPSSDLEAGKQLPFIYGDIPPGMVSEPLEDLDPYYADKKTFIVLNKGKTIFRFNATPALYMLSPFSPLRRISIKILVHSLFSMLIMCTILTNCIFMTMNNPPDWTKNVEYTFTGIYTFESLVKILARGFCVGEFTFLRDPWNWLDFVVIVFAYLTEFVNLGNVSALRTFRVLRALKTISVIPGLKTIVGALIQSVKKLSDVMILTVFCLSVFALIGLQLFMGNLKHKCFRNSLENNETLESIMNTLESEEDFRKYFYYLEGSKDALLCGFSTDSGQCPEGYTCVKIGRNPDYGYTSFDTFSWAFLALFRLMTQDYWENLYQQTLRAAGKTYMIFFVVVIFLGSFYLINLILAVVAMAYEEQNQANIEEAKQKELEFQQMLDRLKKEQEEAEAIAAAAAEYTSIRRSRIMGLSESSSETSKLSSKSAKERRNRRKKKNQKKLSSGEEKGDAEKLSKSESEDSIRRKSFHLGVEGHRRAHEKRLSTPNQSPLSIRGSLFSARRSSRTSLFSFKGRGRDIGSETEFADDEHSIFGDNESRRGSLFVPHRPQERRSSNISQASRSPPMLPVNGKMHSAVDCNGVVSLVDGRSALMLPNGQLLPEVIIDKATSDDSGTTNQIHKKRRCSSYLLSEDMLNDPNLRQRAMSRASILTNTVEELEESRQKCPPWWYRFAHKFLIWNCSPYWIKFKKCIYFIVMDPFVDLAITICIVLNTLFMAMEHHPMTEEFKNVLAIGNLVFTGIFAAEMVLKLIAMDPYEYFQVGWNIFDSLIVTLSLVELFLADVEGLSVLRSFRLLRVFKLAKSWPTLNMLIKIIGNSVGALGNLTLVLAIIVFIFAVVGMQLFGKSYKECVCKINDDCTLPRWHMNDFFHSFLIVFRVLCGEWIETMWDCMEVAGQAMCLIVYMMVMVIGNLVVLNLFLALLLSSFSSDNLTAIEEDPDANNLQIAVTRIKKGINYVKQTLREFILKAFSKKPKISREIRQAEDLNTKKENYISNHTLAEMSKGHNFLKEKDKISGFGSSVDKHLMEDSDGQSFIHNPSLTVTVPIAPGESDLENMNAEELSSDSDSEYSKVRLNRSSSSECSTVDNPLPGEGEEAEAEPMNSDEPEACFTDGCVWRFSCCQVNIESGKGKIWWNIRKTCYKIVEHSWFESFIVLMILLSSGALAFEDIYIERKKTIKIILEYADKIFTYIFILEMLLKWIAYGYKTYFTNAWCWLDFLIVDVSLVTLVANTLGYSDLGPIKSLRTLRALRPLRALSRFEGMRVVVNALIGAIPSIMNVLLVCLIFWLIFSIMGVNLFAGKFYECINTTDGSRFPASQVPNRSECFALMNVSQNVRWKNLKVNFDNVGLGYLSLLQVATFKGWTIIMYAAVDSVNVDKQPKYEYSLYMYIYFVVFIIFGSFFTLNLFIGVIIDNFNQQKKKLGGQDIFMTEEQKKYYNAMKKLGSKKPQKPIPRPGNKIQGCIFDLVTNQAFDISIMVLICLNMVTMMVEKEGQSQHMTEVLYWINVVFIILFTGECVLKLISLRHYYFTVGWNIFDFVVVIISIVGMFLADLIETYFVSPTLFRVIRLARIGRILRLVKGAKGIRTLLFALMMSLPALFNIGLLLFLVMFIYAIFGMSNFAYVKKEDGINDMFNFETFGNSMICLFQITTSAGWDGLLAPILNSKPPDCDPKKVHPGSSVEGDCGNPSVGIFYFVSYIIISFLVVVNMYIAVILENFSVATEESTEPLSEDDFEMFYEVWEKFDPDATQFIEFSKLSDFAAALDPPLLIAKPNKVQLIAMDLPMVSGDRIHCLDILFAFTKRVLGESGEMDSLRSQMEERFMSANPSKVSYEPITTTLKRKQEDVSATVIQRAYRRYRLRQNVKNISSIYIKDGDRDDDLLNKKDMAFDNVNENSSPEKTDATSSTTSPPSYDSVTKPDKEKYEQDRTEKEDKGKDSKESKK

Turning to `O=C1CN(C(=O)NC(c2ccccc2)c2ccccc2)CCN1` [Compound 1, N-benzhydryl-3-oxopiperazine-1-carboxamide], the “Rat SNL Tactile Allodynia (% Antiallodynia)” value in series [1] (1 hour after drug treatment) was 10%. Moreover, the “Rat SNL Tactile Allodynia (% Antiallodynia)” value in series [1] (2 hours after drug treatment) is recorded as 19%. For the same compound, the “Rat SNL Tactile Allodynia (% Antiallodynia)” value in series [1] (4 hours after drug treatment) came to 26%. In addition, in series [1], the “Rat SNL tactile allodynia, anti-allodynia (statement)” value is on record as “significant anti-allodynia”. Besides, in series [2], the “Dose Normalized AUC” value was 993 nM·h, the “Dose Normalized Cmax” value was 333 nM and the Tmax was 102 min.

As to `O=C1CN(C(=O)C[S+]([O-])C(c2ccccc2)c2ccccc2)CCN1` (centres unmarked) [Compound 2, 4-(2-(benzhydrylsulfinyl)acetyl)piperazin-2-one], in series [2], the “Dose Normalized AUC” value worked out at 283 nM·h, the “Dose Normalized Cmax” value turned out to be 182 nM and the Tmax amounted to 30 min.

On to `O=C1CN(C(=O)C(c2ccccc2)c2ccccc2)CCN1` [Compound 7, 4-(2,2-diphenylacetyl)piperazin-2-one], for which the results for the “Rat SNL Tactile Allodynia (% Antiallodynia)” value in series [1] (1 hour after drug treatment), in series [1] (2 hours after drug treatment) and in series [1] (4 hours after drug treatment) were 10%, 9% and 14%, respectively. In addition, the “Dose Normalized AUC” value in series [2] is 1087 nM·h. The “Dose Normalized Cmax” value in series [2] worked out at 730 nM. Besides, the Tmax in series [2] was 30 min.

Take `O=C1CN(C(=O)C=C(c2ccccc2)c2ccccc2)CCN1` [Compound 8, 4-(3,3-diphenylacryloyl)piperazin-2-one]: the “Rat SNL Tactile Allodynia (% Antiallodynia)” value in series [1] (1 hour after drug treatment) was determined as 17%. Besides, in series [1] (2 hours after drug treatment), the “Rat SNL Tactile Allodynia (% Antiallodynia)” value came out at 24%. Further, the “Rat SNL Tactile Allodynia (% Antiallodynia)” value in series [1] (4 hours after drug treatment) turned out to be 17%. For the same compound, in series [2], the “Dose Normalized AUC” value was found to be 185 nM·h, the “Dose Normalized Cmax” value came out at 132 nM and the Tmax was 40.2 min.

Consider `O=C1CN(C(=O)CC(c2ccc(F)cc2)c2ccc(F)cc2)CCN1` [Compound 9, 4-(3,3-bis(4-fluorophenyl)propanoyl)piperazin-2-one], for which the figures for the Fraction current remaining in series [3] (concentration tested 10 μM) and in series [3] (concentration tested 100 μM) were 0.93 and 0.86, respectively. For the same compound, the “Rat SNL Tactile Allodynia (% Antiallodynia)” value was 7% in series [1] (1 hour after drug treatment), 10% in series [1] (2 hours after drug treatment) and 7% in series [1] (4 hours after drug treatment). For the same compound, the “Rat SNL tactile allodynia, anti-allodynia (statement)” value in series [1] is reported as “significant anti-allodynia”.

Regarding `O=C1CN(C(=O)C(c2ccc(Cl)cc2)c2ccc(Cl)cc2)CCN1` [Compound 13, 4-(2,2-bis(4-chlorophenyl)acetyl)piperazin-2-one], in series [1], the “Rat SNL tactile allodynia, anti-allodynia (statement)” value was “significant anti-allodynia”.

With `CC1(C)C(=O)NCCN1C(=O)CC(c1ccc(F)cc1)c1ccc(F)cc1` [Compound 15, 4-(3,3-bis(4-fluorophenyl)propanoyl)-3,3-dimethylpiperazin-2-one], the “Rat SNL Tactile Allodynia (% Antiallodynia)” value in series [1] (1 hour after drug treatment) was found to be 11%; in series [1] (2 hours after drug treatment), 8%; in series [1] (4 hours after drug treatment) it was 15%.
